Source: PubChem BioAssay AID248 (DTP/NCI, 2004)
Where “and” joins values, the source holds several entries; their conditions need not be identical. Equal entries are not always repeated. Toxic doses and inconclusive results are not listed. No stated cut-off is given here; in the data, active means T/C of 150% or more; inactive means T/C below 125%.

System: L1210 leukemia ip in BDF1 mice, survival T/C
Experiment: NCI In Vivo Anticancer Drug Screen. Data for tumor model L1210 Leukemia (intraperitoneal) in B6D2F1 (BDF1) mice
Conditions: endpoint: mean survival time, higher = longer survival
In short: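 Transplantable tumor model; survival measured in treated vs vehicle control mice. Value = treated/control.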

[1] = dose: 100.0 mg/kg/injection, schedule: Q04DX003 (ip), vehicle: saline
[2] = dose: 200.0 mg/kg/injection, schedule: Q04DX003 (ip), vehicle: saline
[3] = dose: 400.0 mg/kg/injection, schedule: Q04DX003 (ip), vehicle: saline
[4] = dose: 100.0 mg/kg/injection, schedule: Q01DX001 (ip), vehicle: saline
[5] = dose: 200.0 mg/kg/injection, schedule: Q01DX001 (ip), vehicle: saline
[6] = dose: 400.0 mg/kg/injection, schedule: Q01DX001 (ip), vehicle: saline

Measured: T/C

O=C1c2ccccc2C(=O)N1c1ccccc1-c1ccccc1
inactive: dose: 25.0 mg/kg/injection, schedule: Q01DX001 (ip), vehicle: Klucel (hydroxypropylcellulose) (HPC) 95 % of control | dose: 50.0 mg/kg/injection, schedule: Q01DX001 (ip), vehicle: Klucel (hydroxypropylcellulose) (HPC) 103 % of control | dose: 100.0 mg/kg/injection, schedule: Q01DX001 (ip), vehicle: Klucel (hydroxypropylcellulose) (HPC) 101 % of control and 121 % of control | dose: 200.0 mg/kg/injection, schedule: Q01DX001 (ip), vehicle: Klucel (hydroxypropylcellulose) (HPC) 93 % of control and 97 % of control | dose: 400.0 mg/kg/injection, schedule: Q01DX001 (ip), vehicle: Klucel (hydroxypropylcellulose) (HPC) 89 % of control

O=[N+]([O-])c1cccc2cccc([N+](=O)[O-])c12
inactive: dose: 100.0 mg/kg/injection, schedule: Q01DX009 (ip), vehicle: saline 91 % of control | [1] 103 % of control | dose: 200.0 mg/kg/injection, schedule: Q01DX009 (ip), vehicle: saline 86 % of control | [2] 98 % of control | [3] 101 % of control

NCC(=O)Oc1c(Cl)c(Cl)c(Cl)c(Cl)c1Cl
inactive: dose: 75.0 mg/kg/injection, schedule: Q01DX001 (ip), vehicle: saline 104 % of control

Cc1cc(C)c([S-])c(C)c1.[Cu+]
inactive: dose: 18.8 mg/kg/injection, schedule: Q01DX001 (ip), vehicle: saline 98 % of control

CCOC(=O)c1cccnc1N(C(=O)c1ccccc1)C(=O)c1ccccc1
inactive: dose: 100.0 mg/kg/injection, schedule: Q04DX002 (ip), vehicle: Klucel (hydroxypropylcellulose) (HPC) 95 % of control | dose: 200.0 mg/kg/injection, schedule: Q04DX002 (ip), vehicle: Klucel (hydroxypropylcellulose) (HPC) 95 % of control | dose: 400.0 mg/kg/injection, schedule: Q04DX002 (ip), vehicle: Klucel (hydroxypropylcellulose) (HPC) 89 % of control

Cc1cc(CCl)c(C)c(Br)c1C
inactive: dose: 6.25 mg/kg/injection, schedule: Q01DX009 (ip), vehicle: Klucel (hydroxypropylcellulose) (HPC) 95 % of control | dose: 12.5 mg/kg/injection, schedule: Q01DX009 (ip), vehicle: Klucel (hydroxypropylcellulose) (HPC) 90 % of control | dose: 25.0 mg/kg/injection, schedule: Q01DX009 (ip), vehicle: Klucel (hydroxypropylcellulose) (HPC) 89 % of control | dose: 50.0 mg/kg/injection, schedule: Q01DX009 (ip), vehicle: Klucel (hydroxypropylcellulose) (HPC) 92 % of control

Cc1[nH]nc(C(=O)O)c1Br
inactive: dose: 25.0 mg/kg/injection, schedule: Q01DX005 (ip), vehicle: saline 100 % of control | dose: 50.0 mg/kg/injection, schedule: Q01DX005 (ip), vehicle: saline 105 % of control | dose: 100.0 mg/kg/injection, schedule: Q01DX005 (ip), vehicle: saline 122 % of control | dose: 200.0 mg/kg/injection, schedule: Q01DX005 (ip), vehicle: saline 102 % of control | dose: 400.0 mg/kg/injection, schedule: Q01DX005 (ip), vehicle: saline 113 % of control

O=C(Cc1ccccn1)c1ccccn1
inactive: [4] 98 % of control | [1] 100 % of control | [5] 117 % of control | [2] 102 % of control | [6] 119 % of control | [3] 98 % of control

Cc1c2c(n(C)c1C(=O)N1CCOCC1)CCCC2=O
inactive: dose: 100.0 mg/kg/injection, schedule: Q04DX003 (ip), vehicle: carboxymethylcellulose (CMC) 101 % of control | dose: 200.0 mg/kg/injection, schedule: Q04DX003 (ip), vehicle: carboxymethylcellulose (CMC) 98 % of control | dose: 400.0 mg/kg/injection, schedule: Q04DX003 (ip), vehicle: carboxymethylcellulose (CMC) 98 % of control

C[N+](C)(C)c1ccc(C(=O)[O-])cc1
inactive: dose: 50.0 mg/kg/injection, schedule: Q01DX001 (ip), vehicle: saline 97 % of control | [4] 97 % of control | [5] 97 % of control | [6] 103 % of control

CC[N+](C)(CC)CCC[n+]1c(-c2ccccc2)c2cc(N)ccc2c2ccc(N)cc21
inactive: dose: 1.56 mg/kg/injection, schedule: Q01DX009 (ip), vehicle: saline 104 % of control | dose: 1.56 mg/kg/injection, schedule: Q04DX003 (ip), vehicle: saline 100 % of control | dose: 3.12 mg/kg/injection, schedule: Q01DX009 (ip), vehicle: saline 109 % of control and 110 % of control | dose: 3.12 mg/kg/injection, schedule: Q04DX003 (ip), vehicle: saline 109 % of control | dose: 6.25 mg/kg/injection, schedule: Q01DX009 (ip), vehicle: saline 100 % of control and 110 % of control | dose: 6.25 mg/kg/injection, schedule: Q04DX003 (ip), vehicle: saline 112 % of control | dose: 6.25 mg/kg/injection, schedule: Q04DX003 (ip), vehicle: water 98 % of control | dose: 12.5 mg/kg/injection, schedule: Q04DX003 (ip), vehicle: water 93 % of control

CCCCN(CCCC)CC(O)c1cc(-c2ccc(Cl)c(Cl)c2)nc2c(Cl)cc(Cl)cc12 (stereo not drawn)
inactive: [4] 103 % of control | [5] 94 % of control | [6] 94 % of control
